These results are taken from patent US20090012165A1, “PHARMACEUTICAL COMBINATION OF NSAID AND PROSTAGLANDIN COMPOUND” (priority 2007, published 2009).

Structures are written as SMILES.

This data set has as its system naproxen-induced gastric ulcer. In words: naproxen-induced gastric ulcer in rats (ulcer index 5 hours after oral dosing). The data set is classed as in vivo, Male Crl: CD (SD) rats. The settings on record: for Ulcer Index (Mean ± S.E.): rats; for % Inhibition of ulcer index: vs vehicle + naproxen group. Here is the method:
Male Crl: […] The animal was euthanized by cervical dislocation 5 hours after administration of the dosing preparation, and the stomach was removed. The stomach was filled with 10 mL of saline and fixed in 1% formalin. Then the stomach was opened along the greater curvature and gently washed with saline. The length of the major axis of each gastric ulcer was measured with digital slide gauges, and the total length of the major axes of all gastric ulcers (ulcer index) was obtained.

For `Cc1c(OCC(F)(F)F)ccnc1C[S+]([O-])c1nc2ccccc2[nH]1` (stereo not shown) [Lansoprazole, lansoprazole, reference compound], for the setting “Lansoprazole 1000 μg/kg + naproxen 200 mg/kg oral, 5 hours”, the “Ulcer Index (Mean ± S.E.)” value is given as 68.09 ± 7.61. Moreover, the “% Inhibition of ulcer index” value (Lansoprazole 1000 μg/kg + naproxen 200 mg/kg) is 16%. The “effect on naproxen-induced gastric ulcers (in words)” value (lansoprazole 1000 μg/kg with naproxen) is “did not have a significant effect”.

In the case of `CC[C@H](C)CC(F)(F)C(=O)CC[C@H]1[C@H](O)CC(=O)[C@@H]1CCCCCCC(=O)O` [Compound A, 13,14-dihydro-15-keto-16,16-difluoro-18(S)-methyl-PGE1], the “Ulcer Index (Mean ± S.E.)” value is given as 63.47 ± 10.87 (Compound A 1 μg/kg + naproxen 200 mg/kg oral, 5 hours); 12.15 ± 3.45 (Compound A 10 μg/kg + naproxen 200 mg/kg oral, 5 hours, p<0.05 vs vehicle + naproxen); 0.50 ± 0.40 (Compound A 100 μg/kg + naproxen 200 mg/kg oral, 5 hours, p<0.01 vs vehicle + naproxen). Also, the “% Inhibition of ulcer index” value (Compound A 1 μg/kg + naproxen 200 mg/kg) was determined as 22%, the “% Inhibition of ulcer index” value (Compound A 10 μg/kg + naproxen 200 mg/kg) is listed as 85% and the “% Inhibition of ulcer index” value (Compound A 100 μg/kg + naproxen 200 mg/kg) is 99.4%. Also, the “reduction of ulcer formation, significance (in words)” value (Compound A 10 μg/kg and 100 μg/kg + naproxen 200 mg/kg groups compared to vehicle + naproxen group) was “Significant reductions of ulcer formation”. Moreover, the “ulcer formation induced by naproxen (in words)” value (Compound A at 1, 10 and 100 μg/kg with naproxen 200 mg/kg, dose-dependent) was “reduced”. For the same compound, under “overall conclusion of Example 1”, the “protective effect against ulcer formation in combination with NSAID (in words)” value was “potent protective effect against ulcer formation”.

With `COc1ccc2cc([C@H](C)C(=O)O)ccc2c1` [naproxen, reference compound], the “Ulcer Index (Mean ± S.E.)” value (Vehicle (0.01% Tween 80) + naproxen 200 mg/kg oral, 5 hours after administration, n=10) was found to be 81.48 ± 15.05.
